Source: US20060276498A1 (Wyeth, priority 2005, published 2006)
Where a name gives a salt, the structure may show the parent alone.

Target: T1, human Cot/Tpl2 kinase (Homo sapiens, UniProt P41279)
T1 construct: human Cot/Tpl2 kinase construct encoding residues 30-398; 6His (N); made in house; host or cells: Sf9 insect cells (baculovirus system, BD Biosciences)
Assay: Tpl2/Cot kinase assay, GST-MEK1 phosphorylation detected by ELISA (DELFIA Eu)
Type: biochemical
Settings: Table 1; 0.4 nM Tpl2, 35 nM GST-MEK1, 50 uM ATP, 1 h at 30° C.
Procedure: Sf9 cells expressing the kinase were lysed in 50 mM NaPhosphate pH=8; 300 mM NaCl; 5 mM imidazole; 0.1 mM EGTA; 25 mM beta-glycerophosphate; 1% TX-100, 1% glycerol; 6 mM beta-mercaptoethanol and protease inhibitors. The lysate was clarified by centrifugation and was loaded onto a Ni-Sepharose column. The column was washed with 50 mM NaPhosphate pH=8; 300 mM NaCl; 15 mM imidazole; 1% glycerol; and 6 mM beta-mercaptoethanol. His-Tpl2 was eluted with 50 mM NaPhosphate pH=8; 300 mM NaCl; 250 mM imidazole; 1% glycerol; and 6 mM beta-mercaptoethanol. The eluted protein was further purified by size exclusion chromatography. Fractions corresponding to monomeric Tpl2 were then used in the assay.
Tpl2/Cot activity was directly assayed using GST-MEK1 as a substrate. GST-MEK1 phosphorylation on serine residues 217 and 221 was detected by ELISA. 0.4 nM Tpl2 was incubated with 35 nM GST-MEK1 in a kinase reaction buffer containing 20 mM MOPS pH=7.2; 50 uM ATP; 20 mM MgCl2; 1 mM DTT; 25 mM β-glycerophosphate; 5 mM EGTA; and 1 mM sodium orthovanadate for 1 h at 30° C. The compounds of the inventions solubilized in 100% DMSO were pre-diluted in assay buffer so that the final concentration of DMSO in the reaction was 1%. The kinase reaction was carried out in 100 ul volume on 96 well plates. The kinase reaction was then stopped with the addition of 100 mM EDTA. […] After a 1 hour incubation at room temperature, the detection plate was washed 4 times with TBST (TBS+0.05% Tween 20) and then incubated for another hour at room temperature with anti phospho-MEK1 antibody (Cell Signaling) 1:1000 in 10 mM MOPS 7.5; 150 mM NaCl; 0.05% Tween 20; 0.1% Gelatin; 0.02% NaN3; and 1% BSA. The detection plate was washed again and incubated for 30 min with DELFIA Europium (Eu) labeled goat anti-rabbit IgG (Perkin-Elmer), 1:4000 in the same buffer used for the primary incubation. After a final wash, Eu detection solution was added to each well and the Eu signal was measured in a Wallac Victor^2 Multilabel Counter. IC50 calculations were preformed using the XLfit software package (IDBS, Guildford, UK).

T1 sequence (P41279 30-398): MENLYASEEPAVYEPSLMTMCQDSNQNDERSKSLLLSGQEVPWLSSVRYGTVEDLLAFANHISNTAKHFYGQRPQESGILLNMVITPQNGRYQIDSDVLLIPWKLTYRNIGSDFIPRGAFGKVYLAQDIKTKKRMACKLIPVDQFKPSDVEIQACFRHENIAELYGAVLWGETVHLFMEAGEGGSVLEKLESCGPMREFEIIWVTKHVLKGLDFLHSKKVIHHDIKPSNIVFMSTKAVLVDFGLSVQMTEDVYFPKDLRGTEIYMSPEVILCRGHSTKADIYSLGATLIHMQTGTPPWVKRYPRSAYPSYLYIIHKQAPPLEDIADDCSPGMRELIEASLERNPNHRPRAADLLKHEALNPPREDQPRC

Row | IC50 [µM] | Structure (SMILES)
1 | 0.009 | N#Cc1cnc2cnc(NCc3cccnc3)cc2c1Nc1ccc(Sc2ccccc2)cc1 [Example 19, 4-(4-(phenylthio)phenylamino)-6-(pyridin-3-ylmethylamino)-1,7-naphthyridine-3-carbonitrile]
2 | 0.29 | N#Cc1cnc2cnc(NCc3cccnc3)cc2c1Nc1ccc(F)c(F)c1 [Example 20, 4-(3,4-difluorophenylamino)-6-(pyridin-3-ylmethylamino)-1,7-naphthyridine-3-carbonitrile]
3 | 0.0096 | CN(C)CCCNc1cc2c(Nc3ccc(Cc4ccccc4)cc3)c(C#N)cnc2cn1 [Example 21, 4-(4-benzylphenylamino)-6-(3-(dimethylamino)propylamino)-1,7-naphthyridine-3-carbonitrile]
4 | 0.079 | CN1CCN(CCCNc2cc3c(Nc4ccc(Cc5ccccc5)cc4)c(C#N)cnc3cn2)CC1 [Example 22, 4-(4-benzylphenylamino)-6-(3-(4-methylpiperazin-1-yl)propylamino)-1,7-naphthyridine-3-carbonitrile]
5 | 0.036 | CN(C)CCNc1cc2c(Nc3ccc(Cc4ccccc4)cc3)c(C#N)cnc2cn1 [Example 23, 4-(4-benzylphenylamino)-6-(2-(dimethylamino)ethylamino)-1,7-naphthyridine-3-carbonitrile]
6 | 1.12 | N#Cc1cnc2cnc(NCCN3CCOCC3)cc2c1Nc1cccc(F)c1 [Example 24, 4-(3-fluorophenylamino)-6-(2-morpholinoethylamino)-1,7-naphthyridine-3-carbonitrile]
7 | 0.038 | N#Cc1cnc2cnc(NCCN3CCNCC3)cc2c1Nc1ccc(Cc2ccccc2)cc1 [Example 25, 4-(4-benzylphenylamino)-6-(2-(piperazin-1-yl)ethylamino)-1,7-naphthyridine-3-carbonitrile, hydrochloride salt]
8 | 4.6 | N#Cc1cnc2cnc(NCCN3CCOCC3)cc2c1Nc1ccc(C(=O)c2ccccc2)cc1 [Example 27, 4-(4-benzoylphenylamino)-6-(2-morpholinoethylamino)-1,7-naphthyridine-3-carbonitrile]
9 | > 40 | Cc1cccc(Nc2c(C#N)cnc3cnc(NCc4cccnc4)cc23)c1 [Example 29, 4-(3-methylphenylamino)-6-(pyridin-3-ylmethylamino)-1,7-naphthyridine-3-carbonitrile]
10 | > 40 | COC(=O)c1ccc(Nc2c(C#N)cnc3cnc(NCc4cccnc4)cc23)cc1 [Example 30, Methyl 4-(3-cyano-6-(pyridin-3-ylmethylamino)-1,7-naphthyridin-4-ylamino)benzoate]
11 | > 40 | COc1ccc(Nc2c(C#N)cnc3cnc(NCCN4CCOCC4)cc23)cc1 [Example 31, 4-(4-methoxyphenylamino)-6-(2-morpholinoethylamino)-1,7-naphthyridine-3-carbonitrile]
12 | > 40 | N#Cc1cnc2cnc(NCc3cccnc3)cc2c1Nc1cccc(OC(F)(F)F)c1 [Example 32, 6-(pyridin-3-ylmethylamino)-4-(3-(trifluoromethoxy)phenylamino)-1,7-naphthyridine-3-carbonitrile]
13 | > 40 | N#Cc1cnc2cnc(NCc3cccnc3)cc2c1Nc1ccc(OC(F)(F)F)cc1 [Example 33, 6-(pyridin-3-ylmethylamino)-4-(4-(trifluoromethoxy)phenylamino)-1,7-naphthyridine-3-carbonitrile]
14 | 5 | N#Cc1cnc2cnc(N)cc2c1Nc1ccc(F)c(Cl)c1 [Example 35, 6-amino-4-[(3-chloro-4-fluorophenyl)amino]-1,7-naphthyridine-3-carbonitrile]
15 | > 40 | CC(C)c1cccc(Nc2c(C#N)cnc3cnc(OCCN4CCOCC4)cc23)c1 [Example 36, 4-[(3-isopropylphenyl)amino]-6-(2-morpholin-4-ylethoxy)-1,7-naphthyridine-3-carbonitrile]
16 | > 40 | CC(C)c1cccc(Nc2c(C#N)cnc3cnc(NCCN4CCOCC4)cc23)c1 [Example 37, 4-[(3-isopropylphenyl)amino]-6-[(2-morpholin-4-ylethyl)amino]-1,7-naphthyridine-3-carbonitrile]

Row | IC50 [µM] | Structure (SMILES)
17 | > 40 | COc1ccc(CNc2cc3c(Nc4cccc(C(C)C)c4)c(C#N)cnc3cn2)cc1 [Example 38, 4-[(3-isopropylphenyl)amino]-6-[(4-methoxybenzyl)amino]-1,7-naphthyridine-3-carbonitrile]
18 | > 40 | N#Cc1cnc2cnc(OCCN3CCOCC3)cc2c1Nc1ccc(F)c(Cl)c1 [Example 39, 4-[(3-chloro-4-fluorophenyl)amino]-6-(2-morpholin-4-ylethoxy)-1,7-naphthyridine-3-carbonitrile]
19 | 0.3 | N#Cc1cnc2cnc(NCCN3CCOCC3)cc2c1Nc1ccc(Oc2ccccc2)cc1 [Example 41, 6-[(2-morpholin-4-ylethyl)amino]-4-[(4-phenoxyphenyl)amino]-1,7-naphthyridine-3-carbonitrile]
20 | > 40 | CC(C)c1ccc(Nc2c(C#N)cnc3cnc(NCCN4CCOCC4)cc23)cc1 [Example 43, 4-[(4-isopropylphenyl)amino]-6-[(2-morpholin-4-ylethyl)amino]-1,7-naphthyridine-3-carbonitrile]
21 | > 40 | N#Cc1cnc2cnc(NCCN3CCOCC3)cc2c1Nc1ccc2[nH]ccc2c1 [Example 44, 4-(1H-indol-5-ylamino)-6-[(2-morpholin-4-ylethyl)amino]-1,7-naphthyridine-3-carbonitrile]
22 | 20 | CN1CCN(CCCNc2cc3c(Nc4ccc(F)c(Cl)c4)c(C#N)cnc3cn2)CC1 [Example 45, 4-[(3-chloro-4-fluorophenyl)amino]-6-{[3-(4-methylpiperazin-1-yl)propyl]amino}-1,7-naphthyridine-3-carbonitrile]
23 | 0.1 | N#Cc1cnc2cnc(NCc3ccccc3)cc2c1Nc1ccc(F)c(Cl)c1 [Example 47, 6-(benzylamino)-4-[(3-chloro-4-fluorophenyl)amino]-1,7-naphthyridine-3-carbonitrile]
24 | 5 | CN(C)CCCNc1cc2c(Nc3ccc(F)c(Cl)c3)c(C#N)cnc2cn1 [Example 48, 4-[(3-chloro-4-fluorophenyl)amino]-6-{[3-(dimethylamino)propyl]amino}-1,7-naphthyridine-3-carbonitrile]
25 | 3 | N#Cc1cnc2cnc(NCCCN3CCOCC3)cc2c1Nc1ccc(F)c(Cl)c1 [Example 49, 4-[(3-chloro-4-fluorophenyl)amino]-6-[(3-morpholin-4-ylpropyl)amino]-1,7-naphthyridine-3-carbonitrile]
26 | 0.41 | CC[C@@H](Nc1cc2c(Nc3ccc(F)c(Cl)c3)c(C#N)cnc2cn1)c1ccccc1 [Example 51, 4-[(3-chloro-4-fluorophenyl)amino]-6-{[(1R)-1-phenylpropyl]amino}-1,7-naphthyridine-3-carbonitrile]
27 | 7 | C[C@@H](Nc1cc2c(Nc3ccc(F)c(Cl)c3)c(C#N)cnc2cn1)[C@@H](O)c1ccccc1 [Example 53, 4-[(3-chloro-4-fluorophenyl)amino]-6-{[(1R, 2S)-2-hydroxy-1-methyl-2-phenylethyl]amino}-1,7-naphthyridine-3-carbonitrile]
28 | 1.3 | C[C@H](Nc1cc2c(Nc3ccc(F)c(Cl)c3)c(C#N)cnc2cn1)[C@H](O)c1ccccc1 [Example 54, 4-[(3-chloro-4-fluorophenyl)amino]-6-{[(1S, 2R)-2-hydroxy-1-methyl-2-phenylethyl]amino}-1,7-naphthyridine-3-carbonitrile]
29 | 1.5 | C[C@@H](O)CNc1cc2c(Nc3ccc(F)c(Cl)c3)c(C#N)cnc2cn1 [Example 55, 4-[(3-chloro-4-fluorophenyl)amino]-6-{[(2R)-2-hydroxypropyl]amino}-1,7-naphthyridine-3-carbonitrile]
30 | 3.6 | C[C@H](O)CNc1cc2c(Nc3ccc(F)c(Cl)c3)c(C#N)cnc2cn1 [Example 56, 4-[(3-chloro-4-fluorophenyl)amino]-6-{[(2S)-2-hydroxypropyl]amino}-1,7-naphthyridine-3-carbonitrile]
31 | 36 | C[C@H](Nc1cc2c(Nc3ccc(F)c(Cl)c3)c(C#N)cnc2cn1)c1ccccc1 [Example 57, 4-[(3-chloro-4-fluorophenyl)amino]-6-{[(1S)-1-phenylethyl]amino}-1,7-naphthyridine-3-carbonitrile]
32 | 3.7 | N#Cc1cnc2cnc(N[C@H](CN3CCOCC3)c3ccccc3)cc2c1Nc1ccc(F)c(Cl)c1 [Example 58, 4-[(3-chloro-4-fluorophenyl)amino]-6-{[(1S)-2-morpholin-4-yl-1-phenylethyl]amino}-1,7-naphthyridine-3-carbonitrile]
